# US8232296B2, “Salt 628” (Astrazeneca AB, priority 2009, dated 2012)
# Where a name gives a salt, the structure may show the parent alone.
# Columns and labels:
# [1] = Oral bioavailability study in the dog; format: in vivo, Beagle dogs; conditions: Beagle, plasma
# Experimental: Beagle dogs (three dogs for each formulation) were administered orally with Compound (I) tosylate form A (dose equivalent to 1.0 mg/kg compound (I) free base) in a gelatine capsule or an aqueous suspension of 0.8 mg/kg crystalline compound (I) free base suspended in water together with 1.2% w/w Avicel and 0.1% w/w Polysorbate 80.
# Accordingly the bioavailability of compound (I) tosylate Form A was about 3 times higher than the free base.
# [2] = Dissolution in 900 ml of 0.1 M HCl (pH 1), USP apparatus 2; format: physicochemical; conditions: 79 mg (corresponding to 60 mg free base) alone in a capsule; 900 ml 0.1 M HCl, 75 rpm, 37° C.
# Experimental: […] The dissolution was measured in 900 ml of 0.1 M HCl (pH 1) and using a USP dissolution apparatus 2 (paddle) at 75 rpm and 37° C. in a fully automated system, Zymark Multidose G3.
# The dissolution profile of tablet formulations A and B in Table 7 were determined in 900 ml of 0.1 M HCl (pH 1) and using a USP dissolution apparatus 2 (paddle) at 75 rpm and 37° C. in a fully automated system, Zymark Multidose G3.
# [3] = Humidity sorption by gravimetrical vapour sorption (GVS); format: physicochemical; conditions: at 80% relative humidity (RH)
# Experimental: As such, compound (I) tosylate Form A is right at the border between slightly hygroscopic and non hygroscopic, according to the criteria defined in the European Pharmacopoeia.
# The gravimetric responses of test samples to changes in humidity were investigated using a SGA 100 (VTI Corporation) Gravimetrical Vapour Sorption (GVS) instrument with the following features:
# Dry to 90% RH and back, in steps of, for example, 10% RH.
# Equilibrium condition: <0.01 weight-% per 10 minutes (<0.001 weight-%/min)
# Approximately 5 mg of the test sample was placed in the cup and evaluated.
# [4] = Solubility of compound (I) tosylate in various dissolution media with time; format: physicochemical; conditions: thermodynamic from solid, 37° C.
# From the text: Therefore compound (I) tosylate is expected to improve the aqueous solubility of compound (I) for a sufficient period of time to allow enhanced absorption in man. Without wishing to be limited by theory, the enhanced solubility of compound (I) tosylate may arise from a combination of the inherent higher solubility of the compound (I) tosylate, and a continued high solubility when the compound (I) precipitates from solution as amorphous material, in aqueous media. The observed improved solubility may therefore reflect both the solubility of the amorphous material and the solubility of the compound (I) tosylate, which will be present in-vivo in varying ratios following oral administration of compound (I) tosylate as a result of the kinetic balance between dissolution and precipitation of compound (I). […] In Table 2, the columns marked “modification” refer to the form of the solid present in the dissolution medium at the relevant time point indicated. The data in Table 2 indicate that the solubility remains high for at least 3 hours, particularly at low pH, representative of the pH found in the stomach.
# Solubility was determined in 0.1 M HCl at pH 1.0, 0.2 M phosphate buffer at pH 3, 0.2 M phosphate buffer at pH 5.0, 0.2 M phosphate buffer at pH 6.5 and 0.2 M phosphate buffer at pH 8.
# Typically about 4 mg of test sample was added to a 1 ml Scantec glass tube. The experiment was started on addition of 800 μl of preheated test media using an automated Tecon robot system (Genesis Freedom 150). Incubation was at 37° C., in a thermoblock, shaken at 600 rpm. Samples were withdrawn after 1 hour, 3 hours and 24 h, triplicate samples for each media. The supernatant liquid was withdrawn from samples and filtered using a Whatman GF/B filter and diluted prior to analysis by LC (Agilent 1100 series with X Terra MSC18 column). The remaining solid in the sample tubes was characterised using XRPD.
# [5] = Solid state stability study (LC and XRPD); format: physicochemical
# Experimental: The solid state stability of compound (I) tosylate Form A was studied under four sets of conditions: at 25° C./desiccated; at 25° C./60% relative humidity (RH); 40° C./75% RH and 60° C./75% RH. Samples were examined (LC and XRPD) after 4, 8 and 12 weeks and chemical and physical stability were evaluated. […] It was concluded that compound (I) tosylate Form A has excellent and advantageous chemical and physical stability in the solid state under pharmaceutically relevant storage conditions.
# [6] = Solubility of salts of compound (I) after 1 hour in 0.1 M HCl (Zymark Multidose G3, UV 337 nm); conditions: after 1 hour in 900 ml of 0.1 M HCl, 75 rpm, 37° C.
# Experimental: The solubility (mg/ml) shown in Table 1 was measured after 1 hour in 900 ml of 0.1 M HCl and at 75 rpm and 37° C. using a Zymark Multidose G3 system. Analysis was made by UV spectrophotometer with a detection wavelength of 337 nm.
# [7] = biological target: T1, Human Neutrophil Elastase (HNE) (Homo sapiens, UniProt P08246); test: Human Neutrophil Elastase Quenched-FRET assay; format: biochemical; conditions: free base dissolved in DMSO; n=26; read-out: IC50 for inhibition of human neutrophil elastase activity
# T1 construct: Human Neutrophil Elastase (HNE) purified from serum (Calbiochem art. 324681); purchased Calbiochem 324681; host or cells: purified from serum (so in the source); natural human source, not recombinant
# T1 sequence (P08246 30-247 limits assumed): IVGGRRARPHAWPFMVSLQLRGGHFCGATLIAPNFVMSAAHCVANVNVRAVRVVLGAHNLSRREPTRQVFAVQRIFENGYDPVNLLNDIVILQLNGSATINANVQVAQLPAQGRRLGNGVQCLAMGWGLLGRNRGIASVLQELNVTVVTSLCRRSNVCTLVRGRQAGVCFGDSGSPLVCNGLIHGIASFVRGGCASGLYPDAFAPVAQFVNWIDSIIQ
# Experimental: The assay uses Human Neutrophil Elastase (HNE) purified from serum (Calbiochem art. 324681; Ref. Baugh, R. J. et al., 1976, Biochemistry. 15, 836-841). […] The protease substrate used was Elastase Substrate V Fluorogenic, MeOSuc-AAPV-AMC (Calbiochem art. 324740; Ref. Castillo, M. J. et al., 1979, Anal. Biochem. 99, 53-64). The substrate was stored in dimethyl sulfoxide (DMSO) at −20° C. The assay additions were as follows: Test compounds and controls were added to black 96-well flat-bottom plates (Greiner 655076), 1.0 μL in 100% DMSO, followed by 30 μL HNE in assay buffer with 0.01% Triton (trade mark) X-100 detergent. The assay buffer constitution was: 100 mM Tris(hydroxymethyl)aminomethane (TRIS) (pH 7.5) and 500 mM NaCl. The enzyme and the compounds were incubated at room temperature for 15 minutes. Then 30 μl substrate in assay buffer was added. The assay was incubated for 30 minutes at room temperature. The concentrations of HNE enzyme and substrate during the incubation were 1.7 nM and 100 μM, respectively. The assay was then stopped by adding 60 μl stop solution (140 mM acetic acid, 200 mM sodium monochloroacetate, 60 mM sodium acetate, pH 4.3). Fluorescence was measured on a Wallac 1420 Victor 2 instrument at settings: Excitation 380 nm, Emission 460 nm. IC50 values were determined using Xlfit curve fitting using model 205.
smiles,measurement,setting,value
"Cc1c(-c2ccnn2C)cc(C(=O)NCc2ccc(S(C)(=O)=O)cn2)c(=O)n1-c1cccc(C(F)(F)F)c1 [compound (I) tosylate Form A, 6-methyl-5-(1-methyl-1H-pyrazol-5-yl)-N-{[5-(methylsulfonyl)pyridin-2-yl]methyl}-2-oxo-1-[3-(trifluoromethyl)phenyl]-1,2-dihydropyridine-3-carboxamide 4-methylbenzenesulfonate]",bioavailability,"[1]; gelatine capsule, dose equivalent to 1.0 mg/kg compound (I) free base",~38%
same,dissolved within 30 minutes,[2],< 65%
same,humidity uptake,[3],around 0.2%
same,solubility at 1 h,"[4]; aqueous buffer, 0.2 M Phosphate buffer pH 3.0, 1 h",493 ± 97 µM
same,solubility at 3 h,"[4]; aqueous buffer, 0.2 M Phosphate buffer pH 3.0, 3 h",492 ± 115 µM
same,solubility at 24 h,"[4]; aqueous buffer, 0.2 M Phosphate buffer pH 3.0, 24 h",11.8 ± 0.9 µM
same,solubility at 1 h,"[4]; aqueous buffer, 0.2 M Phosphate buffer pH 5.0, 1 h",490 ± 42 µM
same,solubility at 3 h,"[4]; aqueous buffer, 0.2 M Phosphate buffer pH 5.0, 3 h",460 ± 54 µM
same,solubility at 24 h,"[4]; aqueous buffer, 0.2 M Phosphate buffer pH 5.0, 24 h",12.2 ± 0.6 µM
same,solubility at 1 h,"[4]; aqueous buffer, 0.2 M Phosphate buffer pH 6.5, 1 h",416 ± 48 µM
same,solubility at 3 h,"[4]; aqueous buffer, 0.2 M Phosphate buffer pH 6.5, 3 h",363 ± 86 µM
same,solubility at 24 h,"[4]; aqueous buffer, 0.2 M Phosphate buffer pH 6.5, 24 h",10.1 ± 0.8 µM
same,solubility at 1 h,"[4]; aqueous buffer, 0.2 M Phosphate buffer pH 8, 1 h",412 ± 29 µM
same,solubility at 3 h,"[4]; aqueous buffer, 0.2 M Phosphate buffer pH 8, 3 h",240 ± 35 µM
same,solubility at 24 h,"[4]; aqueous buffer, 0.2 M Phosphate buffer pH 8, 24 h",8.4 ± 0.7 µM
same,solubility at 1 h,"[4]; simulated gastric fluid, 0.1 M HCl pH 1.0, 1 h",1530 ± 129 µM
same,solubility at 3 h,"[4]; simulated gastric fluid, 0.1 M HCl pH 1.0, 3 h",1100 ± 145 µM
same,solubility at 24 h,"[4]; simulated gastric fluid, 0.1 M HCl pH 1.0, 24 h",58.4 ± 1.2 µM
same,solid state chemical and physical stability,"[5]; 25° C./desiccated, 25° C./60% RH, 40° C./75% RH, after 4, 8 and 12 weeks",no significant chemical or physical changes were observed
same,solid state chemical and physical stability,"[5]; stressed 60° C./75% RH condition, 4, 8 and 12 weeks",some potential chemical degradation
same,Solubility,[6]; 4-methylbenzenesulfonate,1200 µg/mL
"Cc1c(-c2ccnn2C)cc(C(=O)NCc2ccc(S(C)(=O)=O)cn2)c(=O)n1-c1cccc(C(F)(F)F)c1 [compound (I), 6-methyl-5-(1-methyl-1H-pyrazol-5-yl)-N-{[5-(methylsulfonyl)pyridin-2-yl]methyl}-2-oxo-1-[3-(trifluoromethyl)phenyl]-1,2-dihydropyridine-3-carboxamide]",IC50,[7],12 nM
same,bioavailability,"[1]; aqueous suspension of 0.8 mg/kg crystalline free base (1.2% w/w Avicel, 0.1% w/w Polysorbate 80)",~12%
same,Solubility,[6]; listed as Compound (I) free base,40 µg/mL
